These are literature values, as cited in patent US20220313611A1, “METHODS TO PREPARE DRY POWDERS USING SUSPENSION BASED THIN FILM FREEZING” (BOARD OF REGENTS, THE UNIVERSITY OF TEXAS SYSTEM, priority 2021, published 2022).

In the case of `C=CC[C@@H]1/C=C(\C)C[C@H](C)C[C@H](OC)[C@H]2O[C@@](O)(C(=O)C(=O)N3CCCC[C@H]3C(=O)O[C@H](/C(C)=C/[C@@H]3CC[C@@H](O)[C@H](OC)C3)[C@H](C)[C@@H](O)CC1=O)[C@H](C)C[C@@H]2OC` [TAC, Tacrolimus], the solubility in water result is reported as “practically insoluble in water”.
